{"source": "patent US20230399661A1", "about": "“SHUTTLE AGENT PEPTIDES OF MINIMAL LENGTH AND VARIANTS THEREOF ADAPTED FOR TRANSDUCTION OF CAS9-RNP AND OTHER NUCLEOPROTEIN CARGOS” (priority 2020, published 2023)", "assay_type_in_all_cases": "cell-based, Human", "key": {"HeLa cells [1]": {"tested_on": "HeLa cells", "assay": "GFP-NLS transduction in presence of Cas9-RNP complex coated with small molecules", "details": "shuttle agent FSD250, up to 10 mM of the small molecule", "method": "HeLa cells were plated (20 000 cells/well) in a 96 well-plate the day prior to the experiment in DMEM containing 10% FBS. The Cas9-RNP complex coated with small molecules was prepared by mixing a Cas9-NLS recombinant protein (5 μM) complexed with a crRNA/tracrRNA (4 μM) targeting the beta-2 microglobulin (B2M) gene with 0, 100 nM, 1 μM, 10 μM, 100 μM, 1 mM or 10 mM of either 1,3-diaminoguanidine monohydrochloride, 3,5-diamino-1,2,4-triazole, guanidine hydrochloride or L-arginine amide dihydrochloride. The Cas9 RNP complex coated with small molecules was completed to […] with PBS. The delivery mix was prepared by mixing a synthetic peptide shuttle agent (10 μM), the GFP-NLS (10 μM) with or without the Cas9 RNP complex coated or not with small molecules and completed to 50 μL with phosphate-buffered saline PBS. […] Cells were then analyzed by flow cytometry.\nHypothesizing that the inhibitory effect of the sgRNA was due to the negatively charged phosphate backbone of the RNA, we attempted to neutralize the negative charges by coating the Cas9-RNP complexes with small positively charged molecules prior to transduction. Delivery of GFP in HeLa cells in the presence of Cas9-RNP was assessed in the presence of small positively charged molecules such as 1,3-diaminoguanidine monohydrochloride; 3,5-diamino-1,2,4-triazole; guanidine hydrochloride; or L-arginine amide dihydrochloride."}, "HeLa cells [2]": {"tested_on": "HeLa cells", "assay": "GFP-NLS transduction in the presence or absence of Cas9-RNP complex, flow cytometry", "set-up": "GFP transduction efficiency: concentration or dose not given beside the values", "details": "for resistance/sensitivity of GFP transduction to inhibition by Cas9-RNP: presence vs absence of Cas9-RNP", "method": "(§1) HeLa cells were plated (20 000 cells/well) in a 96 well-plate the day prior to the experiment in DMEM containing 10% FBS. A mix was prepared containing a synthetic peptide shuttle agent (10-30 μM), the GFP-NLS (10 μM) with or without a Cas9-NLS recombinant protein (2.5 μM) complexed with a crRNA/tracrRNA (2 μM) targeting the beta-2 microglobulin (B2M) gene and completed to 50 μL with PBS. Cells were washed once with PBS and the shuttle/GFP-NLS/Cas9-RNP mix was added to the cells and incubated for one minute. Then 100 μL DMEM containing 10% FBS was added to the mix. Cells were then immediately washed once with PBS and incubated in DMEM containing 10% FBS for two hours. Cells were the analyzed by flow cytometry.\nTo better understand the inhibitory effect of Cas9-RNP on shuttle agent transduction activity, HeLa cells were incubated with different peptides/shuttle agents and GFP cargo, in the presence or absence of Cas9-RNP, and delivery of GFP was assessed by flow cytometry, as described in Example 1. […] For some shuttle agents, the effect was particularly striking. For example, the GFP transduction efficiency for FSD268 decreased from 92% to 29%, the GFP transduction efficiency for FSD250 decreased from 83% to 13%, the GFP transduction efficiency for FSD10 decreased from 76% to 22%, and the GFP transduction efficiency for FSD395 decreased from 91% to 17%. […] Structure-activity relationships were explored further by repeating the above transduction experiments with shuttle agent variants sharing the same “core” amphipathic cationic alpha helical region as FSD10-15 (FIG. 4A), CM18 (FIG. 4B), and FSD356 (FIG. 4C)."}, "HeLa cells [3]": {"tested_on": "HeLa cells", "assay": "GFP or PI delivery by short/truncated shuttle agents, flow cytometry", "details": "GFP or PI cargo", "method": "HeLa cells were plated (20 000 cells/well) in a 96 well-plate the day prior to the experiment in DMEM containing 10% FBS. Each delivery mix comprising a synthetic peptide shuttle agent (10-30 μM) and GFP-NLS (10 μM) was prepared and completed to 50 μL with RPMI 1640 media. Cells were washed once with phosphate-buffered saline (PBS) and the shuttle/GFP-NLS mix was added to the cells and incubated for five minutes. Then 100 μL DMEM containing 10% FBS was added to the mix. Cells were then immediately washed once with PBS and incubated in DMEM containing 10% FBS for two hours. Cells were then analyzed by flow cytometry.\nHeLa cells were plated (20 000 cells/well) in a 96 well-plate the day prior to the experiment in DMEM containing 10% FBS. […] Cells were then analyzed by flow cytometry.\nTo test the transduction activity of short/truncated synthetic shuttle agents (e.g., generally having less than 20 amino acids), HeLa cells were incubated with control peptides and N-terminal shuttle agent fragments of different lengths and delivery of GFP or PI was assessed by flow cytometry as described in Example 1. […] The Overall Delivery Factor represents a single number that accounts for the toxicity of each shuttle agent/peptide, as well as its ability to deliver GFP and PI, and was calculated as follows: […]"}, "RH-30 cells": {"tested_on": "RH-30 cells", "assay": "PMO-FITC transduction in the presence of sgRNA spiked in the medium, flow cytometry", "details": "5 μM shuttle agent, 6 μM PMO-FITC, 2 μg of sgRNA (4 μg/mL)", "text": "Nuclear delivery of Cas9-sgRNA complexes (hereinafter Cas9-RNP) via first- and second-generation synthetic peptide shuttle agents generally occurs less efficiently than delivery of a Cas9 proteinaceous cargo alone (i.e., without its corresponding sgRNA; see Krishnamurthy et al., 2019, supplementary FIG. 6). The negative effect of the sgRNA (without Cas9) on shuttle agent-mediated transduction of a fluorescently-labelled charge-neutral polynucleotide analog cargo (phosphorodiamidate morpholino oligomer (PMO)) is also shown in FIG. 2A. Briefly, RH-30 cells (150,000 cells/well in 24-well dish) were contacted with a delivery mix containing 6 μM of PMO-FITC and 5 μM of the synthetic peptide shuttle agent FSD250 for 2 minutes in RPMI, in the presence of increasing amounts of sgRNA spiked in the medium. Cells were then washed, incubated in complete medium and then collected for analysis by flow cytometry after 1 h."}, "HeLa cells [4]": {"tested_on": "HeLa cells", "assay": "Large-scale screening for propidium iodide (PI) transduction activity, flow cytometry", "details": "data not shown", "method": "HeLa cells were plated (20 000 cells/well) in a 96 well-plate the day prior to the experiment in DMEM containing 10% FBS. Each delivery mix comprising a synthetic peptide shuttle agent (10-30 μM) and the propidium iodide (PI) (10 μg/mL) were prepared and completed to 50 μL with PBS. Cells were washed once with PBS and the shuttle/PI mix was added to the cells and incubated for one minute. Then 100 μL DMEM containing 10% FBS was added to the mix. Cells were then immediately washed once with PBS and incubated in DMEM containing 10% FBS for two hours. Cells were then analyzed by flow cytometry. […]\nDue to the large number of peptides screened, negative controls were performed in parallel for each experimental batch and included a “no treatment” (NT) control in which the cells were not exposed to shuttle peptide or cargo, as well as a “cargo alone” control in which cells were exposed to the cargo in the absence of shuttle agent. […] Mean PI or GFP-NLS delivery score was calculated by multiplying the mean fluorescence intensity (of at least duplicate samples) measured for the viable PI+ or GFP+ cells by the mean percentage of viable PI+ or GFP+ cells, divided by 100,000 for GFP delivery or by 10,000 for PI delivery. […]"}, "CFF-16HBEge cells [5]": {"tested_on": "CFF-16HBEge cells", "assay": "GFP transduction in the presence or absence of Cas9-RNP in CFF-16HBEge cells", "method": "as §1\nThe above transduction experiments were repeated with FSD10 and FSD375 in a Human Bronchial Epithelial cell line model of cystic fibrosis, CFF-16HBEge."}, "CFF-16HBEge cells [6]": {"tested_on": "CFF-16HBEge cells", "assay": "Cas9-RNP delivery, B2M genome editing", "details": "B2M knockout, versus non-treated negative control", "method": "HeLa cells were plated (10 000 cells/well) in a 96 well-plate the day prior to the experiment in DMEM containing 10% FBS. CFF-16HBEge cells were plated (10 000 cells/well) in a 96 well-plate the day prior to the experiment in Alpha-MEM containing 10% FBS.\n(§2) For Cas9-RNP or ABE-Cas9-RNP transduction, a mix of Cas9-NLS or ABE-Cas9 recombinant protein (2.5 μM) complexed with a crRNA/tracrRNA (2 μM) targeting the beta-2 microglobulin (B2M) gene were co-incubated with 10-20 μM of synthetic peptide shuttle agent in a final volume of 50 μL completed with PBS. Cells were washed once with PBS and the shuttle/Cas9-RNP complex was added to the cells for and incubated for 60 to 90 seconds. Then 100 μL of DMEM (HeLa) or Alpha-MEM (CFF-16HBEge) containing 10% FBS was added to the mix. Cells were then immediately washed once with PBS and incubated in DMEM (HeLa) or Alpha-MEM (CFF-16HBEge) containing 10% FBS.\nGenome editing events resulting in the absence of B2M protein (knockout) at the cell surface were determined by flow cytometry 6 days post-transduction. Cells were washed once with PBS and incubated with the anti-B2 microglobulin antibody (PE conjugated) (0.5 μL of anti-B2M-PE in […] 0.5% BSA/PBS) for 45 minutes at room temperature. Cells were washed twice with PBS and detached with 50 µL of Trypsin-EDTA for 10 minutes at 37° C. then inactivated by adding 100 μL of media containing 10% FBS. The percentage of knockout cells (cells without B2M antibody signal) was determined by flow cytometry.\nA similar genome editing experiment as in Example 6 was performed in the Human Bronchial Epithelial cell line model of cystic fibrosis, CFF-16HBEge.\n(§3) Further transduction experiments in CFF-16HBEge cells were performed to compare the ability of shuttle agents to deliver functional Cas9-RNP genome editing versus ABE-Cas9-RNP base editing complexes. Variants of the shuttle agent FSD10 (FIG. 8A) were tested in parallel, and genome editing/base editing results as evaluated by next-generation sequencing (NGS) are shown in FIGS. 8B and 8C for Cas9-RNP and ABE-Cas9-RNP, respectively."}, "CFF-16HBEge cells [7]": {"tested_on": "CFF-16HBEge cells", "assay": "ABE-Cas9-RNP delivery, base editing evaluated by next-generation sequencing", "details": "NGS", "method": "as §2, §3"}}, "data": [{"compound": "Cl.N=C(NN)NN", "note": "[1,3-diaminoguanidine monohydrochloride]", "values": [{"measurement": "GFP transduction activity and Mean GFP delivery Scores in presence of Cas9-RNP coated with charge-neutralizing agent", "setting": "HeLa cells [1]", "result": "significantly inhibited"}]}, {"compound": "CM18: CM series peptide, 18 amino acids long; endosome leakage domain in some first generation shuttle agents (KWKLFKKIGAVLKVLTTG; CM18) [reference compound]", "values": [{"measurement": "GFP delivery score", "setting": "HeLa cells [2]; FIGS. 3 and 4B, presence or absence of Cas9-RNP not stated", "result": 1.8}, {"measurement": "GFP transduction efficiency", "setting": "HeLa cells [2]; absence of Cas9-RNP", "result": 32, "unit": "%"}, {"measurement": "GFP transduction efficiency", "setting": "HeLa cells [2]; presence of Cas9-RNP", "result": 28, "unit": "%"}, {"measurement": "resistance/sensitivity of GFP transduction to inhibition by Cas9-RNP", "setting": "HeLa cells [2]", "result": "more resistant"}, {"measurement": "transduction activity", "setting": "HeLa cells [3]", "result": "transduction activity was observed"}]}, {"compound": "FSD250: synthetic peptide shuttle agent; FSD446 with C-terminal segment replaced with a cationic segment (KWKLLKLWSRLLKLWGGSGGGSARAARQAR; FSD250)", "values": [{"measurement": "GFP transduction efficiency", "setting": "HeLa cells [2]; absence of Cas9-RNP", "result": 83, "unit": "%"}, {"measurement": "GFP transduction efficiency", "setting": "HeLa cells [2]; presence of Cas9-RNP", "result": 13, "unit": "%"}, {"measurement": "cargo transduction efficiency (PMO-FITC)", "setting": "RH-30 cells", "result": "reduced cargo transduction efficiency"}]}, {"compound": "FSD174 Scramble: negative control peptide known to have low or no GFP transduction activity (LGRSGRIKIGGWSALASRARQARGLKIWTQGRL; FSD174 Scramble)", "values": [{"measurement": "PI transduction efficiency relative to cargo alone negative control", "setting": "HeLa cells [4]", "result": "lower transduction efficiencies for PI"}]}, {"compound": "FSD375: FSD10-15 with flanking glycine/serine-rich residues (GGSGGGSKWKLARAFARAIKKLGGSGGGS; FSD375)", "values": [{"measurement": "GFP transduction activity relative to FSD10-15", "setting": "HeLa cells [2]; FIG. 4A", "result": "improving GFP transduction activity over FSD10-15"}, {"measurement": "resistance/sensitivity of GFP transduction to inhibition by Cas9-RNP", "setting": "HeLa cells [2]", "result": "retained the peptide's resistance to Cas9-RNP"}, {"measurement": "resistance to Cas9-RNP inhibition of GFP transduction", "setting": "CFF-16HBEge cells [5]", "result": "greater resistance to Cas9-RNP inhibition than FSD10"}, {"measurement": "genome editing with Cas9-RNP as cargo", "setting": "CFF-16HBEge cells [6]", "result": "significant genome editing"}, {"measurement": "base editing efficiency (ABE-Cas9-RNP)", "setting": "CFF-16HBEge cells [7]", "result": "about 15%"}]}]}
